Patent publication US20230338391A1, “TREATMENT FOR DEPRESSION” (TAKEDA PHARMACEUTICAL COMPANY LIMITED, priority 2020, published 2023)
“Also recorded” adds a separate entry of the source.

Key:
CNS excitability = experiment: TMS crossover study of CNS PD activity in healthy subjects
[1] = Population PK modeling and simulation; design: species or system human
Description: Data processing and graphical visualization was performed using Matlab (version R2019a; The MathWorks, Inc., Natick, Massachusetts, United States).
The Stochastic Approximation of Expectation Maximization (SAEM) algorithm, a stochastic algorithm for calculating the maximum likelihood estimator, was selected as model-estimation method for its ability to accurately estimate population parameters.
Model building and selection was based on the following criteria/procedures: • Evaluation of individual and population parameter estimates and their precision (precision was quantified using the percentage of relative standard error (% RSE)); • Graphical examination of diagnostic and goodness-of-fit plots; • Analysis of correlation matrix of the estimates and condition number; • Reduction in both residual variability and inter-individual variability; and • Reduction in log likelihood (−2LL), Akaike Information Criterion (AIC) and Bayesian Information Criterion (BIC) for all nested models.
The base model was built by using these criteria to compare different structural models (e.g., one-compartment, two-compartment, three-compartment) with different absorption (e.g., zero order, first order) and elimination (e.g., linear, nonlinear) processes. Development of the base model was performed by adding inter-individual variability (IIV) on one structural parameter at a time and applying the set criteria to select the best model. IIV was generally modeled as an exponential term as follows:
A covariate model was then built to further reduce the unexplained inter-individual variability. Development of the covariate model was performed using the forward selection and backward elimination method. In the forward selection step, covariates were tested one at the time. […] In the backward elimination step, covariates were eliminated one at the time and changes in −2LL recorded.
The final model was evaluated using a visual predictive check, a simulation-based method to visually assess concordance of the model-based simulations and observed data. Bootstrap analysis was also performed to determine the precision of the parameter estimates, estimate confidence interval of identified parameters and assess the stability of the model. […]

[2] = 0.5 mg and 6 mg single oral doses
[3] = final POPPK model, inter-individual variability
[4] = final POPPK model, residual error

CC1=CN2CCS(=O)(=O)N=C2C(c2ccc(OC3CCCCC3)cc2)=N1 [COMPOUND A, 9-[4-(Cyclohexyloxy)phenyl]-7-methyl-3,4-dihydropyrazino[2,1-c][1,2,4]thiadiazine 2,2-dioxide]
SICI measurements and other secondary endpoints (CNS excitability; [2]): not statistically significant
changes from baseline in the rMT, single-pulse TMS (CNS excitability; [2]): not statistically significant
change from baseline of LICI 300 ms (CNS excitability; 0.5 mg single oral dose, 2.5 hours post-dose): statistically significant PD effect
peak-to-peak amplitude of the MEP, single-pulse TMS, change from baseline vs placebo (CNS excitability; 6 mg single oral dose, 2.5 hours post-dose, stimulation intensity 120% of baseline rMT): statistically significant difference from baseline when compared with placebo; also recorded: statistically significant PD effect
Additive Error, median bootstrap parameter estimate ([1]; bootstrap analysis): 0.34 SD
CL/F_IIV, median bootstrap parameter estimate ([1]; bootstrap analysis): 61.97 % CV
KA IIV, median bootstrap parameter estimate ([1]; bootstrap analysis): 97.18 % CV
Proportional Error, median bootstrap parameter estimate ([1]; bootstrap analysis): 37.72 % CV
TLag IIV, median bootstrap parameter estimate ([1]; bootstrap analysis): 67.78 % CV
V/F_IIV, median bootstrap parameter estimate ([1]; bootstrap analysis): 33.27 % CV
CL/F_IIV, population parameter estimate [1, 3]: 62.53 % CV
KA IIV, population parameter estimate [1, 3]: 98.99 % CV
TLag IIV, population parameter estimate [1, 3]: 69.17 % CV
V/F_IIV, population parameter estimate [1, 3]: 33.77 % CV
Additive Error, population parameter estimate [1, 4]: 0.35 SD
Proportional Error, population parameter estimate [1, 4]: 37.56 % CV
